For assay [1], the system named is leukocyte-endothelial adhesion in the iridial microcirculation. As to the kind of experiment: Endotoxin-induced uveitis (EIU), intravital microscopy, CB2R-/- mice. Type of assay: in vivo. The settings on record: topical 1.5% w/v, 6 h after LPS. From the text: Male BALB/c wild-type (WT; 25-30 g; Charles River, QC, Canada) and age-matched (6–8 weeks) CB2R knockout mice (CB2R^-/-) were used for experiments. CB2R^-/- mice were obtained by crossing male C57BL/6J CB2R^-/- mice (strain B6.129P2-Cnr2tm1Dgen/J; Jackson Laboratory, Bar Harbor, ME, USA) with inbred BALB/c female mice (Charles River) for ten generations. Heterozygote mice from separate parents were then bred for a homozygote knock-out of the CB2R^-/-. CB2R^-/- was confirmed via genotyping using DNA extracted from ear punches and the Accustart II Mouse Genotyping Kit (Quanta Biosciences, MD, USA). […]
IVM was conducted as previously described in Toguri et al. (2014). […] The iridial microcirculation was observed using an Olympus OV100 Small Animal Imaging System (Olympus, Tokyo, Japan), which contains an MT-20 light source, fluorescence excitation from a xenon lamp (150 W) and an excitation filter for rhodamine-6G (excitation 515–560 nm, emission 590 nm). Images were captured in real-time by a black and white DP70 CCD C-mount camera and digitally recorded using HCImage software (Hamamatsu, Herrsching, Germany).
During IVM animals were placed on a heating pad in a stereotactic frame, and Tear-Gel® (Novartis Pharmaceuticals Canada Inc., Dorval, QC, Canada) was applied to their cornea. […] Two to four videos of each quadrant were recorded for 30 s each. […]

Assay [2] has as its system adhesion of adoptively-transferred leukocytes in the iridial microcirculation. As to the kind of experiment: Adoptive transfer of WT leukocytes into neutrophil-depleted CB2R-/- mice with EIU. The settings on record: neutrophil-depleted CB2R-/- recipients with EIU, topical. It is filed as in vivo. The method, then:
(§1) For adoptive transfer experiments, calcein-AM-labelled leukocytes were visualized by fluorescence (495 nm excitation) in the iridial microcirculation using a Leica DMLM epifluorescence microscope (Leica, Wetzlar, Germany) equipped with a mercury-arc light source (LEG EBQ 100, Carl Zeiss, Jena, Germany) and captured by a CCD video camera (SIT 68, DAGE MTI, Michigan, IN, USA). Videos were recorded using WinDV Capture software (Mourek, Prague, Czech Republic) and stored on an external hard drive.
(§2) During IVM animals were placed on a heating pad in a stereotactic frame, and Tear-Gel® (Novartis Pharmaceuticals Canada Inc., Dorval, QC, Canada) was applied to their cornea. The iris was divided into four equal quadrants by drawing two superficial lines on the cornea, lengthwise and widthwise. […] Two to four videos of each quadrant were recorded for 30 s each. Videos were analyzed off-line without knowledge of the treatment groups. […] Using ImageJ software (National Institute of Health, Bethesda, MD, USA) the number of adherent leukocytes within each vessel segment was calculated by measuring the diameter and length of vessel segment studied, assuming a cylindrical geometry of blood vessels. Adherent leukocytes were expressed as number of cells per mm^2 of endothelial surface. […] The number of rolling leukocytes was counted for 30 s and used to calculate the number of rolling leukocytes per min. […]

The test system is the same in assay [3]. As to the kind of experiment: Adoptive transfer of WT leukocytes into neutrophil-depleted WT mice with EIU. Type of assay: in vivo, mouse. Conditions: topical 1.5% w/v, 6 h post-EIU. The method, then:
as §1, §2

Each structure is given as a SMILES string.

Here are results for one compound from publication PMC6767236, “Selective Cannabinoid 2 Receptor Agonists as Potential Therapeutic Drugs for the Treatment of Endotoxin-Induced Uveitis” (Molecules, 2019).

On to `CC(C)(C)c1nc(N2CC[C@H](O)C2)c2nnn(Cc3nnnn3C3CC3)c2n1` [RO6871304, (3S)-1-{5-tert-butyl-3-[(1-cyclopropyl-1H-tetrazol-5-yl)methyl]-3H-[1,2, 3]triazolo[4,5-d]pyrimidin-7-yl}pyrrolidin-3-ol], for which the “leukocyte adherence in CB2R-/- mice with EIU” value in assay [1] was “no significant reduction in leukocyte adherence”. Besides, in assay [2], the “adhesion of adoptively-transferred leukocytes” value is “did not affect adhesion of adoptively-transferred leukocytes”. Moreover, the “decrease of LPS-induced adhesion of adoptively-transferred leukocytes compared to vehicle” value in assay [3] was found to be 64 fold.
